Experimental data from ChEMBL document CHEMBL1143848, “Tetracycline resistance in group a streptococci: emergence on a global scale and influence on multiple-drug resistance” (2007).

Test system: Streptococcus
Test: Antimicrobial activity against group A streptococci assessed as percent resistant isolates by Etest
Type: functional

| Compound | Activity [%] |
| --- | --- |
| CC[C@H]1OC(=O)[C@H](C)[C@@H](O[C@H]2C[C@@](C)(OC)[C@@H](O)[C@H](C)O2)[C@H](C)[C@@H](O[C@@H]2O[C@H](C)C[C@H](N(C)C)[C@H]2O)[C@](C)(O)C[C@@H](C)C(=O)[C@H](C)[C@@H](O)[C@]1(C)O [ERYTHROMYCIN] | 25 |
| CN(C)[C@@H]1C(O)=C(C(N)=O)C(=O)[C@@]2(O)C(O)=C3C(=O)c4c(O)cccc4[C@@](C)(O)[C@H]3C[C@@H]12 [TETRACYCLINE] | 38 |
